What is called IC50 is the concentration at which inhibition is half-maximal. A high value points to weaker potency in that assay.

The target of experiment [1] is T1, FYN (Homo sapiens, UniProt P06241).
T1 construct: purchased CarnaBioscience
The experiment in a line: Z'-LYTE in vitro kinase assay, FYN kinase inhibition. In kind it is biochemical. The note with it: for IC50: near-Km ATP, 60 minutes at 25° C. The protocol:
Assays to determine the kinase inhibitory activity of compounds were performed using an automatic liquid handling device (Microlab STAR Hamilton) and Z′-LYTE™ Kinase Assay Platform (Invitrogen), a Fluorescence Resonance Energy Transfer (FRET)-based assay platform compatible with high-throughput screening (HTS) applications. The assay employs a fluorescence-based, coupled-enzyme format and utilizes the differential sensitivity of phosphorylated and non-phosphorylated peptides to proteolytic cleavage.
Test compounds were evaluated towards active FYN (CarnaBioscience). The enzyme was incubated in a 384 low-volume microplate with a synthetic peptide-substrate, ATP and different inhibitor concentrations, ranging from 10^−10 M up to 10^−5 M final concentration. Samples representing the 0% inhibition (or total enzymatic activity) were in the presence of compound diluent (1% DMSO final) in Reaction Buffer (50 mM Hepes, 10 mM MgCl2, 1 mM EGTA, 0.01% Brij-35, pH 7.5).
A near-Km ATP concentrations for the kinase and an optimal enzyme concentration that phosphorylates 20-40% of the Z′-LYTE™ Tyr 2 Peptide in a one-hour incubation, were selected. All reagents were diluted in reaction buffer and the kinase reaction was carried out in a total volume of 10 μl, for 60 minutes at 25° C. The 0% Phosphorylation (i.e. no ATP) and 100% Phosphorylation (i.e. synthetically phosphorylated peptide supplied) Assay Controls, included in each plate, allowed to calculate the percent phosphorylation achieved in the specific reaction well. The 0% Inhibition and 0% Phosphorylation (i.e. 100% Inhibition) Controls define the dynamic range in the screen. At the end of incubation, a secondary reaction (the Development Reaction) started by adding 5 μl of Development Reagent, containing a site-specific protease that recognizes and cleaves non-phosphorylated peptides, and was interrupted after 60 minutes with 5 μl/sample of Stop Reagent. Measurement of the Coumarin (Ex. 400 nm, Em. 460 nm) and Fluorescein (Ex. 400 nm, Em. 535 nm) emission signals were performed by a fluorescence plate reader (Envision, PerkinElmer).
Results are expressed as percentage of inhibition and the IC50 values were calculated by non-linear curve fitting using GraphPad™ Prism software.

Experiment [2] has as its target T2, VEGFR2 (KDR) kinase (Homo sapiens, UniProt P35968).
T2 construct: purchased SignalChem
Description: ADP-Glo in vitro kinase assay, VEGFR2 kinase inhibition. Type of experiment: biochemical. The note with it: for IC50: ATP 50 μM, 30 minutes at room temperature; for VEGFR2 kinase inhibition, result in words: Table 19. The protocol: (§1) The ADP-Glo™ Kinase Assay (Promega), monitoring ADP produced in the kinase reaction, was performed in two steps. In the first one, after the kinase reaction, the ADP-Glo™ Reagent is added to terminate the kinase reaction and deplete the remaining ATP. In the second step, the Kinase Detection Reagent is added to simultaneously convert ADP to ATP (ATPn or newly synthesized ATP) and introduce luciferase and luciferin, allowing the ATPn to be measured (luciferase/luciferin reaction). The amount of light generated correlates with the amount of ATPn (indirectly with the ADP produced in kinase reaction).
(§2) Kinase reaction was performed in 10 μl in a white 384-well plate, inhibitor solutions in DMSO/Kinase buffer (40 mM Tris-Cl, 20 mM MgCl2, 0.1 mg/ml BSA, 50 μM DTT, pH 7.5) and VEGFR2 (KDR) kinase in Kinase buffer (SignalChem, 0.5 ng/μl final concentration in assay) were pre-incubate 15 minutes at room temperature. At the kinase concentration selected, a signal-to negative control ratio >10 was calculated, according to supplier indication. In samples representing the Total enzymatic activity or the negative control (no enzyme), inhibitor solution was replaced by diluents (1 DMSO in kinase buffer, final concentration) or ultra-pure water, respectively.
(§3) The range of inhibitor concentrations was from 10^−11 M up to 3×10^−6 M (final concentration in assay) and each experimental point was performed in duplicate.
(§4) To start the reaction, a substrate/ATP mix (50 μM final concentration, near to ATP Km value) was added to each sample and after 30 minutes incubation at room temperature, ADP-Glo™ Reagent and Kinase Detection Reagent, incubated in sequence according to the respective incubation time and supplier indication, allowed to stop and develop the kinase reaction. The luminescence was measured with a plate-reading luminometer (Envision 2104 Multilabel reader, PerkinElmer). The percentage of inhibition was calculated towards the Total enzymatic activity and the corresponding curves were analyzed by non linear curve fitting (GraphPad software, version 7 for Windows), allowing to calculate the IC50 value±standard error of the value
Background: ADP-Glo first removes unused ATP, then detects ADP through luciferase.

Experiment [3] addresses human FynB (Homo sapiens, UniProt P06241). The experiment in a line: Inhibition of FynB-induced Tau(Y18)-phosphorylation (cell-based assay, HEK293). The note with it: for IC50: HEK293 over-expressing FynB and Tau 0N4R, incubation 6 or 24 hours, ELISA; for Inhibition of FynB-induced Tau(Y18)-phosphorylation, result in words: summary of Table 20. As to the method: HEK293 cells (Human Embryonic Kidney 293) were seeded at 6×10^5 in poly-D-lysine 12 w microplates and grown adherent in medium DMEM/10% FBS at 37° C. with 5% CO2. After 24 h, cells were transfected in order to over-express either constitutively active form of human FynB and Tau protein (isoform 0N4R), through an optimized Lipofectamine® 3000 Transfection protocol (Life Technologies™). A non-transfected sample (negative control) was included in every experiment.
Twenty-four hours from transfection, treatments of cells were performed by adding fresh medium containing diluent (DMSO 0.1% final concentration) or test compounds. The incubation was carried out for 6 or 24 hours at 37° C. with 5% CO2. All experimental conditions were performed in duplicate.
At the end of the incubation, the medium was removed and cellular lysates were obtained by adding M-PER lysis buffer containing a 1× Protease/Phosphatase inhibitors cocktail. Then, lysates were transferred into Eppendorf tubes, sonicated and stored at −80° C.
Protein content was measured by Bradford method. Lysates were analyzed by a customized ELISA assay for Tau phosphorylation (Tyrosine 18 residue-Fyn mediated) and Total amount determination. The net OD values were used to calculate the inhibitory effect of compounds.
Background: An ELISA detects its analyte on a solid surface through an enzyme-linked reagent.

The target of experiment [4] is EGFR (Homo sapiens, UniProt P00533). The experiment in a line: ADP-Glo in vitro kinase assay, EGFR kinase inhibition. The note with it: for IC50: ATP 10 μM, 30 minutes at room temperature; for EGFR kinase inhibition, result in words: text summary of Table 18. On the set-up: purchased SignalChem. In kind it is biochemical. As to the method:
as §1
as §2, with “EGFR” for “VEGFR2 (KDR)”, “2.5” for “0.5”, “selected” for “selected,”, “activity (no inhibitor)” for “activity”
as §3
as §4, with “mix (ATP 10” for “mix (50”, “the estimate.” for “the value”

In experiment [5] the test system is U87MG. Description: Cell viability, ViaCount assay, U87MG. In kind it is cell-based, human. The note with it: tested cell lines (U87MG, U373). The protocol: U87MG: a human glioblastoma astrocytoma from ATCC. Grown in DMEM medium supplemented with 10% FBS at 37° C. with CO2.
Cell viability and total cell count was performed with ViaCount Assay on Guava® Systems, which was able to distinguish viable and non-viable cells based on differential permeabilities of two DNA-binding dyes in the Guava ViaCount® Reagent. 2×10^4 cancer cells were plated in 24 well in DMEM 10%. After 72 h cells were treated with the different compounds for 24, 72 h or 7 days, with a medium change and a second treatment with the product on day 4. At the end of the incubation period the analysis was done following the kit instructions.

Chain of EGFR (P00533 25-1210): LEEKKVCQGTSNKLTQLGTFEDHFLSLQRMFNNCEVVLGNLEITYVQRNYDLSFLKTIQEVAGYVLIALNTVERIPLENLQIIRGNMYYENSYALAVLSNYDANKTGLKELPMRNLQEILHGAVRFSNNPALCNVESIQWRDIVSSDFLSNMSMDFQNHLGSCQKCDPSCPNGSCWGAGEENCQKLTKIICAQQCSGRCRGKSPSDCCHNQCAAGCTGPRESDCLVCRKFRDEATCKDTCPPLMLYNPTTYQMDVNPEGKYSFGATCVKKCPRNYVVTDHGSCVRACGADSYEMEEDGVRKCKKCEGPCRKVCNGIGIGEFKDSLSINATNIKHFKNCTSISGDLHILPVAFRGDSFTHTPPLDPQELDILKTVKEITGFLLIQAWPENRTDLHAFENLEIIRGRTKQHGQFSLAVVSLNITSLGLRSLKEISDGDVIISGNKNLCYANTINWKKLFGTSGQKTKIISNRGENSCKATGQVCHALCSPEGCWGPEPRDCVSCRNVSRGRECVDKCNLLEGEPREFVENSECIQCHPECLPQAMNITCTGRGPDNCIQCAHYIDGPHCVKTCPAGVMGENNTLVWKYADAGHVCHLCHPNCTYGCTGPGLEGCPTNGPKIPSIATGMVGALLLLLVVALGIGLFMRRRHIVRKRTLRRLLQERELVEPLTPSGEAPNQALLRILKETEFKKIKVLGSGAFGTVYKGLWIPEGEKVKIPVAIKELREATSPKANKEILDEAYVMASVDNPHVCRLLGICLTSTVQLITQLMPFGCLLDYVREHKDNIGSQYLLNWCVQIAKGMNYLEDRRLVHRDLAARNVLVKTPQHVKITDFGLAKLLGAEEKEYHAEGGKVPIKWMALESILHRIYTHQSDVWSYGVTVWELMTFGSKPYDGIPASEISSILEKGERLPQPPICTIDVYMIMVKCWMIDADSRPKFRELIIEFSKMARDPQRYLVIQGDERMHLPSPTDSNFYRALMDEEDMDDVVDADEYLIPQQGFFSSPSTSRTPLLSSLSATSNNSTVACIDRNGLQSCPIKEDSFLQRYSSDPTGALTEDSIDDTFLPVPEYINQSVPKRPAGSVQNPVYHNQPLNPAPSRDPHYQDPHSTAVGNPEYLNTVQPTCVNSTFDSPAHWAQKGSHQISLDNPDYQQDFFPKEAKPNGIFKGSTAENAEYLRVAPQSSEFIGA
T1 sequence (P06241 whole entry): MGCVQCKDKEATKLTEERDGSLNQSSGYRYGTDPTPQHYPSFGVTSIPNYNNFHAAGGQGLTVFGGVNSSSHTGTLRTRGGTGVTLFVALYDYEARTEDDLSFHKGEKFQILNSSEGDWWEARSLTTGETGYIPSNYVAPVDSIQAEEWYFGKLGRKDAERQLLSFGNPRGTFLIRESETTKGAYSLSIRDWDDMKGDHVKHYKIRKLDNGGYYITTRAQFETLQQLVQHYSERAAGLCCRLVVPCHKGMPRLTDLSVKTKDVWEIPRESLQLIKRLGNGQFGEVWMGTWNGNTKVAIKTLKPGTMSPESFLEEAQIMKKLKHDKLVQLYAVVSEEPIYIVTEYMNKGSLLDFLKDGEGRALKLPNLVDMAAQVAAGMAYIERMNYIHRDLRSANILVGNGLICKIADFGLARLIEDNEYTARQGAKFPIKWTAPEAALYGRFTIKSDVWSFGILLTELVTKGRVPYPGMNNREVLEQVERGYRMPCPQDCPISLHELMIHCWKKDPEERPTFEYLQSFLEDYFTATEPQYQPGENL
T2 sequence (P35968 20-1356): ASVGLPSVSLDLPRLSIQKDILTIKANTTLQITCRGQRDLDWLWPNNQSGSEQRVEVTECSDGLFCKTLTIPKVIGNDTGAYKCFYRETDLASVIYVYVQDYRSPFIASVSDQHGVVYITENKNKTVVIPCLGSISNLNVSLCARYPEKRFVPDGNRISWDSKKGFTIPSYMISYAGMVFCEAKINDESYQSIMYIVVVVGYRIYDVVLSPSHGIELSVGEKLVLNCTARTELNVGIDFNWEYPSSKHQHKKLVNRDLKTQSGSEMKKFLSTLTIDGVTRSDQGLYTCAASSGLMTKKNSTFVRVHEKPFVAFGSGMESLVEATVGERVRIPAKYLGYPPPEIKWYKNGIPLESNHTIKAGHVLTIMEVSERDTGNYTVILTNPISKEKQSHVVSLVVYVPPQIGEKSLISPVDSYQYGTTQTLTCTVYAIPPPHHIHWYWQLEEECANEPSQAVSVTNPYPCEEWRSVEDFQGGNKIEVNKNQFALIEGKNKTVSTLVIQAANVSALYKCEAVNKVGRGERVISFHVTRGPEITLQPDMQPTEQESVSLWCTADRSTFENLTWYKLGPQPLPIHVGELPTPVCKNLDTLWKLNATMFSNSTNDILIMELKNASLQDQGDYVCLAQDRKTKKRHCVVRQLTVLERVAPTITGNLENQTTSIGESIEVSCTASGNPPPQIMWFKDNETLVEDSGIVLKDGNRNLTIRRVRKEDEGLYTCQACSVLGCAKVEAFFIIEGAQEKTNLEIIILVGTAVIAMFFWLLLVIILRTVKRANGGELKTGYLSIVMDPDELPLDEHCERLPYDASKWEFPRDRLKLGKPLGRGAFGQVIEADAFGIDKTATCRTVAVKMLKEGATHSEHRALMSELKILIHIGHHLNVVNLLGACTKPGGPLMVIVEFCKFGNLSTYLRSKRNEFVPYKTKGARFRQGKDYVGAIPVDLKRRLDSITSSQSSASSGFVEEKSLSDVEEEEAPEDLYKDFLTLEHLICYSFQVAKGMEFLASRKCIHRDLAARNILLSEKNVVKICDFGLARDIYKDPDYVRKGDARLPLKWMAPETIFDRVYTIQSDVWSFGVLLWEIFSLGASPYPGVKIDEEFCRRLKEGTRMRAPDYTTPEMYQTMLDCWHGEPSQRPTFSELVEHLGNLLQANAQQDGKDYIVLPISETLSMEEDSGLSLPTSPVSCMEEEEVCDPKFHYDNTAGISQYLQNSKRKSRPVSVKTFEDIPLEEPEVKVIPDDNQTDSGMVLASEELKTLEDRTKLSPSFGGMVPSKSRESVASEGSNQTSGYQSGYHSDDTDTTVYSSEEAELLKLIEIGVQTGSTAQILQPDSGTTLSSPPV
Chain of human FynB (P06241 271-524 limits assumed): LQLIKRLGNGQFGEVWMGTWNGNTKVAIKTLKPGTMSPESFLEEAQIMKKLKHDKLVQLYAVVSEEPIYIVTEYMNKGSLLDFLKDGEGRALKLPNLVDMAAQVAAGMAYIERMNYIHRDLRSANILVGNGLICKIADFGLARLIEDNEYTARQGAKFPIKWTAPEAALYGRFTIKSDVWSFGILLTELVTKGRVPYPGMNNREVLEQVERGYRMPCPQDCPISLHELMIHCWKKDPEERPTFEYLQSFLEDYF

`CN1CCC(c2ccc(C(=O)Nc3n[nH]c4nc(Nc5cccc(F)c5F)ccc34)cc2)CC1` [Compound 20, N-(6-((2,3-difluorophenyl)amino)-1H-pyrazolo[3,4-b]pyridin-3-yl)-4-(1-methylpiperidin-4-yl)benzamide]: the IC50 was determined as 0.209 µM in experiment [1], 0.105 µM in experiment [2], 0.234 µM in experiment [3] and 0.009 µM in experiment [4]. Further, in experiment [3], the “Inhibition of FynB-induced Tau(Y18)-phosphorylation, result in words” value is recorded as “best inhibitors”. Besides, in experiment [4], the “EGFR kinase inhibition, result in words” value was “more active”.
Take `Cc1ccc(Nc2ccc3c(NC(=O)c4ccc(C5CCN(C)CC5)cc4)n[nH]c3n2)cc1` [Compound 23, 4-(1-methylpiperidin-4-yl)-N-(6-(p-tolyamino)-1H-pyrazolo[3,4-b]pyridin-3-yl)benzamide]: the IC50 is 0.111 µM in experiment [1], 0.0026 µM in experiment [2], 0.23 µM in experiment [3] and at least 1 µM in experiment [4].
Take `CN1CCC(c2ccc(C(=O)Nc3n[nH]c4nc(Nc5ccc6c(c5)OCO6)ccc34)cc2)CC1` [Compound 28, N-(6-(benzo[d][1,3]dioxol-5-ylamino)-1H-pyrazolo[3,4-b]pyridin-3-yl)-4-(1-methylpiperidin-4-yl)benzamide]: the “FYN kinase inhibition, result in words” value in experiment [1] (Table 17) is “more active”. The IC50 in experiment [1] was 0.072 µM; in experiment [2] it was 0.001 µM; in experiment [3] it was 0.1 µM; in experiment [4], at least 1 µM. Also, in experiment [2], the “VEGFR2 kinase inhibition, result in words” value (“VEGFR2 kinase inhibition” below) is reported as “more potent”. Moreover, in experiment [5], the “reduction of cell viability, result in words” value is “active in reducing cell viability”. For the same compound, the “Inhibition of FynB-induced Tau(Y18)-phosphorylation, result in words” value in experiment [3] is “best inhibitors”.
Regarding `Cc1ccc(Nc2ccc3c(NC(=O)c4ccc(C5CCN(C)CC5)cc4)n[nH]c3n2)c(F)c1` [Compound 30, N-(6-((2-fluoro-4-methylphenyl)amino)-1H-pyrazolo[3,4-b]pyridin-3-yl)-4-(1-methylpiperidin-4-yl)benzamide], the IC50 was found to be 0.115 µM in experiment [1], 0.001 µM in experiment [2], 0.669 µM in experiment [3] and 0.155 µM in experiment [4]. Moreover, the “VEGFR2 kinase inhibition” value in experiment [2] is listed as “more potent”.
`CN1CCN(c2ccc(C(=O)Nc3n[nH]c4nc(Nc5ccccc5F)ccc34)cc2)CC1` [Compound 48, N-(6-((2-fluorophenyl)amino)-1H-pyrazolo[3,4-b]pyridin-3-yl)-4-(4-methylpiperazin-1-yl)benzamide] registered an IC50 in experiment [1] of 0.212 µM. Also, in experiment [2], 0.001 µM corresponded to half-maximal inhibition (IC50) and the “VEGFR2 kinase inhibition” value is “more potent”. Also, in experiment [3], the IC50 amounted to 0.259 µM and the “Inhibition of FynB-induced Tau(Y18)-phosphorylation, result in words” value is “best inhibitors”. Besides, in experiment [4], it took 0.015 µM to reach half-maximal inhibition (IC50) and the “EGFR kinase inhibition, result in words” value is “more active”.
Turning to `CC(=O)N1CCN(c2ccc(C(=O)Nc3n[nH]c4nc(Nc5ccccc5F)ccc34)cc2)CC1` [Compound 52, 4-(4-acetylpiperazin-1-yl)-N-(6((2-fluorophenyl)amino)-1H-pyrazolo[3,4-b]pyridin-3-yl)benzamide], the half-maximal inhibitory concentration (IC50) in experiment [1] turned out to be 0.168 µM; in experiment [3], 0.646 µM.

These data come from US20220041559A1, “BENZO-AND PYRIDO-PYRAZOLES AS PROTEIN KINASE INHIBITORS” (ROTTAPHARM BIOTECH S.R.L., priority 2019, published 2022).
